In DBAASP one finds MIC data, which are given here for nine compounds.

What all share (assay): ≥ marks a high value that may be exact or a test limit, other limits are often not marked, values filed in µg/mL are converted to µM
Assay [1] concerns Escherichia coli ATCC 11219.
Assay [2] concerns Pseudomonas aeruginosa ATCC 13388.
Assay [3] relates to Klebsiella pneumoniae ATCC 10031.
Assay [4] relates to Salmonella enterica subsp. enterica serovar Typhimurium ATCC 14028.
Assay [5] concerns Staphylococcus aureus ATCC 6538.
In assay [6] the test system is Staphylococcus aureus ATCC 12600.
The test system of assay [7] is Streptococcus mutans ATCC 25175.
Assay [8] relates to Pseudomonas aeruginosa ATCC 27853.
For assay [9], the system named is Escherichia coli ATCC 25922.
Assay [10] deals with Enterococcus faecalis ATCC 29212.
The test system of assay [11] is Candida albicans ATCC 14053.
Assay [12] relates to Klebsiella pneumoniae ATCC 13883.
The test system of assay [13] is Staphylococcus aureus ATCC 29213.
The subject of the next assay is Escherichia coli TOP 10.
In assay [14] the test system is Staphylococcus aureus KCTC 1621.
In assay [15] the test system is Staphylococcus epidermidis KCTC 1917.
Assay [16] concerns Bacillus subtilis KCTC 3068.
The test system of assay [17] is Pseudomonas aeruginosa KCTC 1637.
Assay [18] deals with Escherichia coli KCTC 1682.
The test system of assay [19] is Salmonella typhimurium KCTC 1926.
In the next assay the test system is Escherichia coli JM109.
Assay [20] relates to Trichosporon beigelii KCTC 7707.
Assay [21] concerns Bacillus subtilis KCTC 1918.
The test system of assay [22] is Candida albicans TIMM 1768.

Each structure is given as a SMILES string. Converted amounts (≈) assume the structure as drawn.

As for `CC[C@H](C)[C@H](NC(=O)CN)C(=O)N[C@@H](C)C(=O)N[C@@H](CC(=O)O)C(=O)N[C@H](C(=O)N[C@@H](CC(C)C)C(=O)N[C@@H](CCCCN)C(=O)N[C@@H](Cc1ccc(O)cc1)C(=O)NCC(=O)N[C@@H](CCCCN)C(=O)N1CCC[C@H]1C(=O)N[C@@H](CO)C(N)=O)[C@@H](C)CC` [GIADILKYGKPS], the MIC (usually the lowest concentration that inhibits growth of the organism) was not below 50 µM in assay [1]; 15 µM (≈ 18.9 µg/mL) in assay [2]; 30 µM (≈ 37.8 µg/mL) in assay [3]; 10 µM (≈ 12.6 µg/mL) in assay [4]; 20 µM (≈ 25.2 µg/mL) in assay [5].

With `CC[C@H](C)[C@H](NC(=O)CN)C(=O)N[C@@H](CCCCN)C(=O)N[C@@H](CC(=O)O)C(=O)N[C@H](C(=O)N[C@@H](CC(C)C)C(=O)N[C@@H](CCCCN)C(=O)N[C@@H](Cc1ccc(O)cc1)C(=O)NCC(=O)N[C@@H](CCCCN)C(=O)N1CCC[C@H]1C(=O)N[C@@H](CO)C(N)=O)[C@@H](C)CC` [GIKDILKYGKPS], the MIC in assay [1] amounted to 10 µM (≈ 13.2 µg/mL); in assay [2] it was 30 µM (≈ 39.5 µg/mL); in assay [3], 10 µM (≈ 13.2 µg/mL); in assay [4], 5 µM (≈ 6.59 µg/mL); in assay [5], 15 µM (≈ 19.8 µg/mL).

With `CC[C@H](C)[C@H](NC(=O)CNC(C)=O)C(=O)N[C@@H](CCCN=C(N)N)C(=O)N[C@@H](CCCN=C(N)N)C(=O)N[C@H](C(=O)N[C@@H](CC(C)C)C(=O)N[C@@H](CCCCN)C(=O)N[C@@H](Cc1ccc(O)cc1)C(=O)NCC(=O)N[C@@H](CCCCN)C(=O)N[C@@H](CCCN=C(N)N)C(=O)N[C@@H](CO)C(N)=O)[C@@H](C)CC` [GIRRILKYGKRS], the MIC in [1] stood at 5 µM (≈ 7.44 µg/mL); in assay [2], 20 µM (≈ 29.8 µg/mL); in assay [3], 5 µM (≈ 7.44 µg/mL); in assay [4], 20 µM (≈ 29.8 µg/mL); in assay [5], 2.2 µM (≈ 3.27 µg/mL).

In the case of `CC[C@H](C)[C@H](NC(=O)[C@H](C)NC(=O)CNC(=O)[C@H](Cc1ccccc1)NC(=O)[C@H](CC(C)C)NC(=O)CN)C(=O)N[C@@H](C)C(=O)NCC(=O)N[C@@H](Cc1ccccc1)C(=O)N[C@H](C(=O)N[C@@H](CCCCN)C(=O)NCC(=O)NCC(=O)N[C@@H](Cc1c[nH]c2ccccc12)C(=O)N[C@@H](CCC(N)=O)C(=O)NCC(=O)N[C@@H](CCSC)C(=O)N[C@H](C(=O)N[C@@H](CCCCN)C(=O)NCC(N)=O)C(C)C)[C@@H](C)CC` [GLFGAIAGFIKGGWQGMVKG], the MIC in [6] is 15.7 µM (≈ 31.3 µg/mL); in assay [7] it was 11.1 µM (≈ 22.1 µg/mL); in [8] it was more than 62.7 µM; in assay [9], 15.7 µM (≈ 31.3 µg/mL).

For `CC[C@H](C)[C@H](NC(=O)[C@H](CCCCN)NC(=O)[C@H](CO)NC(=O)[C@H](C)NC(=O)[C@H](Cc1c[nH]c2ccccc12)NC(=O)CN)C(=O)NCC(=O)N[C@@H](CCC(N)=O)C(=O)N[C@H](C(=O)N[C@@H](CC(C)C)C(=O)NCC(=O)N[C@@H](CCCCN)C(=O)N[C@H](C(=O)N[C@@H](C)C(=O)N[C@@H](CCCCN)C(=O)N[C@H](C(=O)NCC(=O)N[C@@H](CC(C)C)C(=O)N[C@@H](CCCCN)C(=O)N[C@@H](CCC(=O)O)C(=O)N[C@@H](CC(C)C)C(=O)N[C@H](C(=O)N[C@@H](CCC(N)=O)C(=O)N1CCC[C@H]1C(=O)N[C@@H](CCCCN)C(N)=O)[C@@H](C)CC)C(C)C)[C@@H](C)CC)[C@@H](C)O` [GWASKIGQTLGKIAKVGLKELIQPK], the MIC was 66.4 µM (≈ 177 µg/mL) in assay [8]; 133 µM (≈ 353 µg/mL) in [10]; not below 133 µM in assay [11]; not below 33 µM in [12]; 133 µM (≈ 353 µg/mL) in [13]; 8.36 µM (≈ 22.3 µg/mL) in assay [9].

In the assay with Escherichia coli TOP 10, `CC[C@H](C)[C@H](N)C(=O)N[C@@H](CCCCN)C(=O)N[C@@H](C)C(=O)N[C@@H](CC(C)C)C(=O)N[C@@H](CC(C)C)C(=O)N[C@@H](C)C(=O)N[C@@H](CC(C)C)C(=O)N1CCC[C@H]1C(=O)N[C@@H](CCCCN)C(=O)N[C@@H](CC(C)C)C(=O)N[C@@H](C)C(=O)N[C@@H](CCCCN)C(=O)N[C@@H](CCCCN)C(=O)N[C@H](C(=O)N[C@@H](C)C(=O)N[C@@H](CCCCN)C(=O)N[C@@H](CCCCN)C(=O)N[C@@H](Cc1ccccc1)C(=O)N[C@@H](CC(C)C)C(=O)N[C@@H](CCCCN)C(N)=O)[C@@H](C)CC` [IKALLALPKLAKKIAKKFLK] gave an MIC of 22.4 µM (≈ 50 µg/mL). This lies in the double-digit micromolar range.

Turning to `CC[C@H](C)[C@H](N)C(=O)N[C@@H](CC(C)C)C(=O)N1CCC[C@H]1C(=O)N[C@@H](Cc1c[nH]c2ccccc12)C(=O)N[C@@H](CCCCN)C(=O)N[C@@H](Cc1c[nH]c2ccccc12)C(=O)N[C@@H](CCCCN)C(=O)N[C@@H](Cc1c[nH]c2ccccc12)C(=O)N[C@@H](Cc1c[nH]c2ccccc12)C(=O)N1CCC[C@H]1C(=O)N[C@@H](Cc1c[nH]c2ccccc12)C(=O)N[C@@H](CCCN=C(N)N)C(=O)N[C@@H](CCCN=C(N)N)C(N)=O` [ILPWKWKWWPWRR], the MIC was determined as 2.58 µM (≈ 5 µg/mL) in assay [14]; 5.16 µM (≈ 10 µg/mL) in assay [15]; 2.58 µM (≈ 5 µg/mL) in assay [16]; 10.3 µM (≈ 20 µg/mL) in assay [17]; 5.16 µM (≈ 10 µg/mL) in assay [18]; 5.16 µM (≈ 10 µg/mL) in assay [19]. Besides, the MIC against Escherichia coli JM109 worked out at 1 µM (≈ 1.94 µg/mL).

Compound `CC[C@H](C)[C@H](NC(=O)[C@H](CO)NC(=O)[C@H](CCCN=C(N)N)NC(=O)[C@@H](NC(=O)[C@H](CS)NC(=O)[C@H](CO)NC(=O)[C@@H]1CCCN1C(=O)[C@H](CC(C)C)NC(=O)[C@H](Cc1ccccc1)NC(=O)[C@H](CCCN=C(N)N)NC(=O)[C@@H](N)CCCCN)C(C)C)C(=O)N[C@@H](CCC(N)=O)C(=O)N[C@@H](CC(N)=O)C(=O)N[C@@H](CC(C)C)C(=O)N[C@@H](CC(=O)O)C(=O)N[C@@H](CC(=O)O)C(=O)N[C@@H](C)C(=O)N[C@@H](CC(C)C)C(=O)N1CCC[C@H]1C(=O)N[C@H](C(=O)N1CCC[C@H]1C(=O)N[C@@H](CCC(=O)O)C(=O)N[C@@H](CCC(=O)O)C(=O)N[C@@H](Cc1ccccc1)C(N)=O)[C@@H](C)O` [KRFLPSCVRSIQNLDDALPTPEEF] showed an MIC against Escherichia coli TOP 10 not below 36 µM.

As to `CC(C)C[C@H](NC(=O)[C@H](CCCCN)NC(=O)[C@H](CCCCN)NC(=O)[C@H](Cc1c[nH]c2ccccc12)NC(=O)[C@@H](N)CCCCN)C(=O)N[C@@H](CC(C)C)C(=O)N[C@@H](CCCCN)C(=O)N[C@@H](CCCCN)C(=O)N1CCC[C@H]1C(=O)N[C@@H](CC(C)C)C(=O)N[C@@H](CC(C)C)C(=O)N[C@@H](CCCCN)C(=O)N[C@@H](CCCCN)C(N)=O` [KWKKLLKKPLLKK], the MIC was 25 µM (≈ 41.3 µg/mL) in [20]; 6.25 µM (≈ 10.3 µg/mL) in [21]; 12.5 µM (≈ 20.6 µg/mL) in [14]; 12.5 µM (≈ 20.6 µg/mL) in assay [17]; 25 µM (≈ 41.3 µg/mL) in [22]; 12.5 µM (≈ 20.6 µg/mL) in assay [18]. Moreover, the MIC in [19] turned out to be 1.56 µM (≈ 2.57 µg/mL).
